{"source": "patent US12150925B2", "about": "“Buthionine sulfoximine and a metallodrug for the treatment of cancer, HIV or a rheumatic disease” (Istituto Superiore di Sanità, priority 2017, dated 2024)", "key": {"Jurkat T-cells [1]": {"system": "Jurkat T-cells", "assay": "Microphotographs of treated Jurkat T-cells (FIG. 5)", "assay_type": "cell-based", "conditions": "auranofin at a clinically-acceptable concentration added to BSO and cisplatin (FIG. 5)", "excerpt": "FIG. 5 is microphotographs of Jurkat T-cells treated with different concentrations of cisplatin, auranofin or buthionine sulfoximine (BSO)."}, "Supt-1 T-cells [2]": {"system": "Supt-1 T-cells", "assay": "Microphotographs of treated Supt-1 T-cells (FIG. 3)", "assay_type": "cell-based", "conditions": "0.25 μM auranofin with submicromolar BSO (FIG. 3)", "excerpt": "FIG. 3 is microphotographs of Supt-1 T-cells treated with different concentrations of auranofin or buthionine sulfoximine."}, "Supt-1 T-cells [3]": {"system": "Supt-1 T-cells", "assay": "Viability of Supt-1 T-cells (MTS assay, FIGS. 2 and 6)", "assay_type": "cell-based", "method": "FIG. 2 is a graph showing the viability of Supt-1 T-cells treated with different concentrations of auranofin (AU) or buthionine sulfoximine (BSO). Viability was measured 72 hours after treatment with the drugs at the indicated concentrations with the MTS assay. Absorbance values were normalized over untreated controls and expressed as percentage. BSO=buthionine sulfoximine. Concentrations are expressed in μM. Data are expressed as mean t SEM and were analysed by the Turkey posttest following One Way ANOVA. *P<0.05; **P<0.01 ***P<0.001; ****P<0.0001. NS: non-significant. The synergistic index (SI) is expressed where significant differences exist in comparison with the single drug treatments.\nFIG. 6 is a graph showing the viability of Supt-1 T-cells treated with different concentrations of cisplatin or buthionine sulfoximine (BSO). Viability was measured 72 hours after treatment with the drugs at the indicated concentrations with the MTS assay. Absorbance values were normalized over untreated controls and expressed as percentage. BSO=buthionine sulfoximine. Concentrations are expressed in μM; Asterisks show the significant differences [*q<0.05; **q<0.01; q is the P value corrected for multiple comparisons by controlling the False Discovery Rate (threshold for significance=q=0.05)]. NS: non-significant. The synergistic index (SI) is expressed where significant differences exist in comparison with the single drug treatments.\n(§1) In-vitro activity on activated CD4^+ T-cells and leukemia/lymphoma Methods. Resting CD4^+ T-cells, cultured T-cell leukemic Jurkat cells and Sup-T1 cells were left untreated or incubated for 24-72 hours with various concentrations of auranofin and/or buthionine sulfoximine (BSO), or chloroquine (only CD4^+ T-cells) or cisplatin (only Jurkat and Supt-T1 cells) CD4^+ T-cells were then activated by adding phytohemagglutinin (2 μg/mL). Alternatively, CD4^+ T-cells were first activated with anti-CD3/anti-CD28 beads and, after 72 hours, were left untreated or were incubated with auranofin and/or buthionine sulfoximine (BSO), or chloroquine. Cell viability was determined 24-72 hours post-activation with an MTT assay (CellTiter 96@ Non-Radioactive Cell Proliferation Assay) or MTS assay (CellTiter 960 AQueous One Solution Cell Proliferation Assay System; Promega). For the assay, 300×10^5 cells were re-suspended in 100 μL of medium and transferred to a 96-well plate. Cells were then incubated with 20 μL of a substrate solution (One Solution Reagent) for 3-4 hours in a CO2 (5%) incubator at 37° C. For the MTT assay, 100 μL of a Solubilization/Stop Solution were used to stop the reaction. Medium-only containing wells were included to serve as a blank control. Absorbance levels were recorded at 490 nm (MTS) or 570 nm (MTT) and, after subtraction of the blank, absorbance values were expressed as percentage of controls.\n(§2) Results. The results from the new dosage combinations were compared to the untreated cells as well as the cells treated with single drugs or “classical” dosages, in a multiple comparison analysis. Thus, the statistical significances shown are also significant compared to the untreated cells."}, "activated CD4^+ T-cells": {"system": "activated CD4^+ T-cells", "assay": "Viability of activated primary CD4+ T-cells (MTT assay, FIG. 1)", "assay_type": "cell-based", "method": "FIG. 1 is a graph showing the viability of activated primary CD4^+ T-cells treated with different concentrations of auranofin and buthionine sulfoximine (BSO), measured with the MTT assay. The cells were pre-incubated with the drugs for 24 hours and then activated with phytohemagglutinin (PHA) and assayed for viability 72 hours post activation (A) or the cells were activated with αCD3-αCD28 beads and then treated for 48 h with different combinations of auranofin and BSO (B). In (A), the effects of chloroquine are shown as a matter of comparison with a drug adopted in the clinic to limit immune hyperactivation. All concentrations are expressed in μM. In-vitro activity on activated CD4^+ T-cells and leukemia/lymphoma Methods. Resting CD4^+ T-cells, cultured T-cell leukemic Jurkat cells and Sup-T1 cells were left untreated or incubated for 24-72 hours with various concentrations of auranofin and/or buthionine sulfoximine (BSO), or chloroquine (only CD4^+ T-cells) or cisplatin (only Jurkat and Supt-T1 cells) CD4^+ T-cells were then activated by adding phytohemagglutinin (2 μg/mL). Alternatively, CD4^+ T-cells were first activated with anti-CD3/anti-CD28 beads and, after 72 hours, were left untreated or were incubated with auranofin and/or buthionine sulfoximine (BSO), or chloroquine. Cell viability was determined 24-72 hours post-activation with an MTT assay (CellTiter 96@ Non-Radioactive Cell Proliferation Assay) or MTS assay (CellTiter 960 AQueous One Solution Cell Proliferation Assay System; Promega). For the assay, 300×10^5 cells were re-suspended in 100 μL of medium and transferred to a 96-well plate. Cells were then incubated with 20 μL of a substrate solution (One Solution Reagent) for 3-4 hours in a CO2 (5%) incubator at 37° C. For the MTT assay, 100 μL of a Solubilization/Stop Solution were used to stop the reaction. Medium-only containing wells were included to serve as a blank control. Absorbance levels were recorded at 490 nm (MTS) or 570 nm (MTT) and, after subtraction of the blank, absorbance values were expressed as percentage of controls. Results. The results from the new dosage combinations were compared to the untreated cells as well as the cells treated with single drugs or “classical” dosages, in a multiple comparison analysis. Thus, the statistical significances shown are also significant compared to the untreated cells."}, "MKN-45 cells": {"system": "MKN-45 cells", "conditions": "BSO 5, 10 and 25 mM; cisplatin 0.01-1 μg/ml; cited from earlier work"}, "[4]": {"conditions": "5 mmol/kg (equivalent to 111.5 mg/kg) BSO 12 hours before the chemotherapeutic agent; cited from earlier work"}, "Jurkat T-cells [5]": {"system": "Jurkat T-cells", "assay": "Viability of Jurkat T-cells (MTT assay, FIG. 4)", "assay_type": "cell-based", "method": "FIG. 4 is a graph showing the viability of Jurkat T-cells treated with different concentrations of cisplatin, auranofin and/or buthionine sulfoximine (BSO). Viability was measured 48 hours after treatment with the drugs at the indicated concentrations with the MTT assay. Absorbance values were normalized over untreated controls and expressed as percentage. Concentrations are expressed in μM. Data are expressed as mean±SEM and were. Asterisks show the significant differences [*q<0.05; *q<0.01; q is the P value corrected for multiple comparisons by controlling the False Discovery Rate (threshold for significance=q=0.05)]. NS: non-significant. The synergistic index (SI) is expressed where significant differences exist in comparison with the single drug treatments.\nas §1, §2"}, "MKN-28 cells": {"system": "MKN-28 cells", "conditions": "BSO 5, 10 and 25 mM; cisplatin 0.1-3.0 μg/ml; cited from earlier work"}, "SIVmac251": {"system": "SIVmac251", "conditions": "auranofin 0.4 mg/kg/day and BSO 450 mg/kg in combination with ART; cited from earlier work"}, "[6]": {"system": "murine mammary carcinoma cell line", "conditions": "auranofin/submicromolar BSO combination; cited from earlier work"}, "glutathione levels": {"system": "glutathione levels", "conditions": "Malaker et al. 1994; cited from earlier work"}, "[7]": {"conditions": "rats; cited from earlier work"}, "[8]": {"conditions": "BSO 500 mg/kg intraperitoneally; cisplatin 6 or 9 mg/kg; cited from earlier work"}, "cellular GSH": {"system": "cellular GSH", "conditions": "1.5 g/m^2 BSO at 12 hour intervals for six doses, alone or with 15 mg/m^2 melphalan; cited from earlier work"}, "HIV": {"system": "HIV", "assay": "Theoretical clinical example, HIV patient, with computational simulation of the viral reservoir", "parameters": "species or system human", "conditions": "auranofin 6 mg bid six months plus low-dose BSO (three one-week cycles, 0.08 g orally every 6 hours) with ART; baseline 22 copies/10^6 CD4^+ T-cells", "excerpt": "A simulation of the viral load (RNA copies/ml) and viral reservoir (L cells) dynamics in a human model is provided. The trend of productively infected cells (T*) is also shown. The simulation is based on the five differential equations model in Rong and Perelson (2009). The peaks in the viral load correspond to the periods of activation of latently infected CD4+ T-cells. For starting data see Rong and Perelson (2009). Different proliferation rates (p) are shown (day^−1), corresponding to different drug treatments, or absence of any treatment. The bottom three panels depict a scenario without the drugs, with p=1.4 day^−1. The effects of BSO in combination with auranofin at plasma molar ratios (BSO/auranofin) of 1:0.25 (top three panels), 1:0.5 (second line of panels from top), 1:1 (third line of panels from top) are simulated. The plasma concentration of auranofin is […]. The activation function adopted to simulate lymphocyte encounter with antigens is illustrated in Rong and Perelson (2009).\nThe following is a theoretical example for a typical situation wherein the BSO is used at a reduced concentration, with a clinically-acceptable dosage of auranofin to treat a patient with an HIV diagnosis.\nPatient received an HIV diagnosis in 2008. […]\nThe patient is subjected to quantification of viral DNA, the result of which is 22 copies/10^6 CD4^+ T-cells. […]"}, "[9]": {"conditions": "submicromolar BSO with cisplatin 10 μM"}}, "note": "Entries after “also recorded” stand apart in the source; their conditions may differ.", "data": [{"smiles": "CC(=O)OC[C@H]1O[C@@H]([S-])[C@H](OC(C)=O)[C@@H](OC(C)=O)[C@@H]1OC(C)=O.CCP(CC)CC.[Au+]", "note": "[auranofin]", "values": [{"measurement": "cell morphology", "setting": "Jurkat T-cells [1]", "result": "increased the aforementioned morphological alterations"}, {"measurement": "cell morphology", "setting": "Supt-1 T-cells [2]", "result": "morphological alterations linked to poor lymphoblastic cell viability"}, {"measurement": "synergism in terms of cell viability", "setting": "Supt-1 T-cells [3]; only with 0.5 μM auranofin, with BSO (FIG. 2)", "result": "significant synergism"}]}, {"smiles": "CCCCS(=N)(=O)CCC(N)C(=O)O", "note": "(stereo not shown) [BSO, buthionine sulfoximine]", "values": [{"measurement": "effect on viability compared with clinically achievable concentrations of Chloroquine", "setting": "activated CD4^+ T-cells; BSO 2 μM with auranofin", "result": "superior"}, {"measurement": "limitation of cell viability compared with classically-described BSO concentration (250 μM)", "setting": "activated CD4^+ T-cells; BSO 2 μM with auranofin", "result": "similar"}, {"measurement": "effect with auranofin in limiting the viability of activated CD4^+ T-cells", "setting": "activated CD4^+ T-cells; BSO as low as 2 μM in combination with auranofin, pre-incubated (FIG. 1A) or treated concomitantly to activation (FIG. 1B)", "result": "synergistic effect"}, {"measurement": "effects of BSO on viability at submicromolar concentrations", "setting": "activated CD4^+ T-cells; with auranofin, cells activated with αCD3-αCD28 beads, then treated 48 h (FIG. 1B)", "result": "still present"}, {"measurement": "effect of BSO pre-treatment on antitumor activity of cisplatin", "setting": "MKN-45 cells", "result": "increased the antitumor activity of cisplatin"}, {"measurement": "effect on anti-cancer effects of cyclophosphamide, cisplatin or bleomycin", "setting": "[4]", "result": "increased the anti-cancer effects"}, {"measurement": "synergism of BSO and cisplatin", "setting": "Jurkat T-cells [5]; BSO (submicromolar) with cisplatin (10 μM), 48 h (FIG. 4)", "result": "Significant synergism; also recorded: true synergism"}, {"measurement": "effect of auranofin and low concentrations of BSO on the anti-neoplastic effect of cisplatin", "setting": "Jurkat T-cells [5]; BSO with auranofin and cisplatin (FIGS. 4 and 5)", "result": "increase the anti-neoplastic effect of cisplatin"}, {"measurement": "effect of BSO on susceptibility to cisplatin", "setting": "Jurkat T-cells [5]; FIG. 4", "result": "chemosensitizing effect"}, {"measurement": "inhibition of cellular proliferation compared with BSO 250 μM", "setting": "Jurkat T-cells [5]; [9]", "result": "no statistical difference"}, {"measurement": "effect of BSO pre-treatment on antitumor activity of cisplatin", "setting": "MKN-28 cells", "result": "increased the antitumor activity of cisplatin"}, {"measurement": "disease outcome following suspension of all therapies", "setting": "SIVmac251", "result": "functional cure"}, {"measurement": "directly cytotoxic/anticancer effect", "setting": "[6]", "result": "not able to detect"}, {"measurement": "BSO concentration required to achieve a 90% decrease in glutathione levels", "setting": "glutathione levels", "result": 6, "unit": "µM"}, {"measurement": "effect on nephrotoxicity of cisplatin", "setting": "[7]", "result": "reduce the nephrotoxicity"}, {"measurement": "difference between BSO only and the same BSO concentration in the presence of auranofin", "setting": "Supt-1 T-cells [3]; BSO 250 μM", "result": "no significant difference"}, {"measurement": "effect on cisplatin-induced cell death", "setting": "Supt-1 T-cells [3]; BSO 250 μM with cisplatin", "result": "increased cisplatin-induced cell death"}, {"measurement": "synergistic index", "setting": "Supt-1 T-cells [3]; BSO 250 μM with cisplatin (FIG. 6), effect antagonistic", "result": "> 1.1"}, {"measurement": "effect of BSO only", "setting": "Supt-1 T-cells [3]; BSO 250 μM, no auranofin", "result": "cytotoxic effect"}, {"measurement": "effect of BSO on susceptibility to cisplatin", "setting": "Supt-1 T-cells [3]; FIG. 6", "result": "chemosensitizing effect"}, {"measurement": "viability", "setting": "Supt-1 T-cells [3]; auranofin and BSO 250 μM", "result": "low viability"}, {"measurement": "difference between combined drug treatment and the single drugs alone", "setting": "Supt-1 T-cells [3]; submicromolar BSO with auranofin, e.g. auranofin 0.5+BSO 0.75 μM", "result": "extremely significant difference"}, {"measurement": "inhibition of cellular proliferation compared with BSO 250 μM", "setting": "Supt-1 T-cells [3]; [9]", "result": "no statistical difference"}, {"measurement": "synergism of BSO and cisplatin", "setting": "Supt-1 T-cells [3]; submicromolar BSO with cisplatin 10 μM (FIG. 6)", "result": "true synergism"}, {"measurement": "anticancer effect", "setting": "Supt-1 T-cells [3]; submicromolar BSO with clinically-achievable auranofin concentrations (FIGS. 2 and 3)", "result": "direct anticancer effect"}, {"measurement": "effect of BSO pre-treatment on antitumor effects of cisplatin", "setting": "[8]", "result": "enhanced"}, {"measurement": "cellular GSH", "setting": "cellular GSH", "result": "Marked depletion"}, {"measurement": "viral reservoir after treatment", "setting": "HIV", "result": "< 10 copies of viral DNA/million cells"}]}]}
